Data reported in paper PMC8923065, “Paeoniflorin reduce luxS/AI-2 system-controlled biofilm formation and virulence in Streptococcus suis” (Virulence, 2021).

Target: T1, LuxS (Streptococcus suis, UniProt B2CMA5)
T1 construct: recombinant from pET28-luxS in E. coli BL21(DE3), HisTrap purified
Experiment: Ellman assay of homocysteine, […] nm, Michaelis-Menten fit
Type: biochemical
Conditions: SRH as substrate, 6.25-25 ug/ml PF, pH 7.2, 37 °C; competitive; partial inhibition

T1 sequence (B2CMA5 entry or part of it): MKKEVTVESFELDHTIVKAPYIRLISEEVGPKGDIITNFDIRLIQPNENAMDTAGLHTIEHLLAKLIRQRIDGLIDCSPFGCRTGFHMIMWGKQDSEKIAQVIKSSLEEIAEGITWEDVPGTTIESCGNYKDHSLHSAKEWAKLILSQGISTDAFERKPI

Compound: C[C@@]12C[C@@]3(O)O[C@@H](O1)[C@]1(COC(=O)c4ccccc4)[C@H]3C[C@@]12O[C@@H]1O[C@H](CO)[C@@H](O)[C@H](O)[C@H]1O [PF, paeoniflorin]
- Ellman assay of homocysteine, 412 nm, Michaelis-Menten fit: the Km value of LuxS gradually increases, although the maximum reaction rate does not change
